One assay deals with LNCaP cells. The assay is described as follows: Cell growth inhibition in LNCaP cells (WST-8 assay). It is filed as cell-based. The method, then: LNCaP were treated with different compounds in charcoal stripped medium in the presence of 0.1 nM of AR agonist R1881 for 7 days. Cell viability was determined by a WST-8 assay.
Cell lines and Cell Culture: All the LNCaP, VCaP and 22RV1 cells used were purchased from American Type Culture Collection (ATCC). LNCaP and 22RV1 cells were grown in RPMI 1640 (Invitrogen), VCaP cells were grown in DMEM with Glutamax (Invitrogen). All of the cells were supplemented with 10% fetal bovine serum (Invitrogen) at 37° C. in a humidified 5% CO2 incubator.

The target of the next assay is T1, AR protein (Homo sapiens, UniProt P10275, T878A).
T1 construct: The percent AR protein degradation induced by these compounds at various concentrations in LNCaP cells; host or cells: LNCaP
T1 sequence (P10275 1-920 T878A): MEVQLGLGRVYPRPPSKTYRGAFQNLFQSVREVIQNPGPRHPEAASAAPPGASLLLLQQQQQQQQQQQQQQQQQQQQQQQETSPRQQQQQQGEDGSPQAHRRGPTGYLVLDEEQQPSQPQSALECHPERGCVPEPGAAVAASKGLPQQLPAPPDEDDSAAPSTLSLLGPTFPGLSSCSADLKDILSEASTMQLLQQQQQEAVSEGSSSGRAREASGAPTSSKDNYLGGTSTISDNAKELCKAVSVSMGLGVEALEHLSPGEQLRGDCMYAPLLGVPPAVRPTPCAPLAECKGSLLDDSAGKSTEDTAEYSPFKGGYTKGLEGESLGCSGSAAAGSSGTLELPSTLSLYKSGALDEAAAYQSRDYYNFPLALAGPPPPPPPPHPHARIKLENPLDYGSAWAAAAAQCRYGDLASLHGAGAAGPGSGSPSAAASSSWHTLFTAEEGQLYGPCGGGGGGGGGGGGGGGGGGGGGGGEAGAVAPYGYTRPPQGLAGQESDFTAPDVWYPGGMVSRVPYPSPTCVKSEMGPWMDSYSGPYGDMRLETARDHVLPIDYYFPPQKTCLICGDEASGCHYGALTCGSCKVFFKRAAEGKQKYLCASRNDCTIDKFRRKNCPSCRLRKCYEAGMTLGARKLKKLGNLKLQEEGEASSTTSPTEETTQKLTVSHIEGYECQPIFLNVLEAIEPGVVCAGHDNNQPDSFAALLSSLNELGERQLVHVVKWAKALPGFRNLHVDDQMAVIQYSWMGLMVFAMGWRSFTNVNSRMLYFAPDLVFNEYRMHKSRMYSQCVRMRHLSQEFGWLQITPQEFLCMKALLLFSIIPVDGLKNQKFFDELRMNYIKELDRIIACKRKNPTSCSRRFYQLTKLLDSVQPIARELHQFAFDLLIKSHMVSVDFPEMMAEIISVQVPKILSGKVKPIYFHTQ
The assay is described as follows: AR protein degradation in LNCaP cells (Western blotting). Format: cell-based. The settings on record: for % AR protein degradation in LNCaP Cells: treatment time 6 h, average of three independent experiments. In outline:
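LNCaP cells were cultured with 10% FBS at 37° C and lysed in RIPA buffer after treatment. AR levels were measured by Western blot. Degradation percentage was quantified by densitometry as the background-corrected AR band relative to the loading control.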

Molecules are shown by their SMILES.

Consider `Cc1ncsc1-c1ccc([C@H](CC(=O)N2CCC(N3CCC(C#Cc4ccc(C(=O)NC5C(C)(C)C(Oc6ccc(C#N)c(Cl)c6)C5(C)C)cc4)CC3)CC2)NC(=O)[C@@H]2C[C@@H](O)CN2C(=O)[C@@H](NC(=O)C2(F)CC2)C(C)(C)C)cc1` (stereo partly drawn) [Compound 34, (2S,4R)—N—((S)-3-(4-((4-(((1r,3r)-3-(3-Chloro-4-cyanophenoxy)-2,2,4,4-tetramethyl-cyclobutyl)carbamoyl)phenyl)ethynyl)-[1,4′-bipiperidin]-1′-yl)-1-(4-(4-methylthiazol-5-yl)phenyl)-3-oxopropyl)-1-((S)-2-(1-fluorocyclopropane-1-carboxamido)-3,3-dimethylbutanoyl)-4-hydroxypyrrolidine-2-carboxamide], for which the “Potency relative to enzalutamide (4) and compound 6 in cell growth inhibition” value in the assay on LNCaP cells is given as greater than 100 times. The midpoint of inhibition in the assay with LNCaP cells (charcoal stripped medium, 0.1 nM R1881, 7 days), the IC50, lay at 0.25 nM. Besides, the “% AR protein degradation in LNCaP Cells” value at AR protein (0.01 μM) is listed as 89%; at AR protein (0.1 μM) it was 99%; on AR protein (1 μM), 100%. Besides, the AR degradation at AR protein (LNCaP, 10 nM, 24 h treatment) is on record as greater than 95%. The “Time to effective reduction of AR protein level” value on AR protein (LNCaP, 100 nM) is reported as no more than 2 h. The “AR depletion with a 4 h treatment” value on AR protein (LNCaP, 100 nM, 4 h) is given as “near-complete AR depletion”. At AR protein (LNCaP, 24 h treatment, read-out: DC50 (drug concentration that results in 50% protein degradation)), the DC50 stood at 0.86 nM. The “AR degradation (Western blotting, dose-dependent)” value is given as “partial AR degradation” at AR protein (LNCaP, at 10 nM); “essentially complete AR degradation” on AR protein (LNCaP, at both 100 nM and 1 μM). Further, on AR protein (LNCaP, based upon the data obtained at 10 nM), the “Rank as AR degrader among 32, 34 and 35” value is on record as “most potent”. Also, on AR protein (LNCaP, data not shown), the “AR degradation after pretreatment with AR antagonist (6), VHL-d, MLN4924 or MG132” value is listed as “effectively blocked”.

The record behind these values is patent publication US20220081435A1, “ANDROGEN RECEPTOR PROTEIN DEGRADERS” (THE REGENTS OF THE UNIVERSITY OF MICHIGAN, priority 2019, published 2022).
